For data set [1], the target named is T1, human amylin 3(a) receptor (human calcitonin receptor + RAMP-3) in BHK570 cells (Homo sapiens, UniProt O60896+P30988).
T1 construct: expressed in transfected cells
Put plainly: ASSAY (II)a functional assay, human amylin receptor (CRE luciferase). Format: cell-based. The text has this:
1. Luciferase Assay Outline
Activation of calcitonin and amylin (coexpression of calcitonin receptor and receptor activity modifying proteins (RAMP)) receptors lead to increased intracellular concentrations of cAMP. Consequently, transcription is activated by promoters containing multiple copies of the cAMP response element (CRE). It is thus possible to measure amylin activity by the use of a CRE luciferase reporter gene introduced into BHK cells also expressing calcitonin or amylin receptors.
2. Construction of Calcitonin (a)- and Amylin 3(a)-Receptor/CRE-Luc Cell Line.
The cell line was further transfected with RAMP-3, using standard methods. This turns the calcitonin receptor into an amylin 3(a) receptor. Methotrexate, Neomycin, and Hygromycin are selection markers for luciferase, the calcitonin receptor, and RAMP-3, respectively.
To perform activity assays, BHK calcitonin (a) receptor- or amylin 3(a)-receptor/CRE-luc cells were seeded in white 96 well culture plates at a density of about 20.000 cells/well. […] After incubation overnight at 37° C. and 5% CO2, the growth medium was replaced by 50 μl/well assay medium (DMEM (without phenol red), Glutamax™, 10% FBS, and 10 mM Hepes, pH 7.4). Further, 50 μl/well of standard or sample in assay buffer were added. After 3 hours incubation at 37° C. and 5% CO2, the assay medium with standard or sample were removed and replaced by 100 μl/well PBS. Further, 100 μl/well LucLite™ was added. The plates were sealed and incubated at room temperature for 30 minutes. Finally, luminescence was measured on a TopCounter (Packard) in SPC (single photon counting) mode.

Data set [2] in a line: ASSAY (III) ThT fibrillation assay for physical stability. The format is physicochemical. The text has this: Assay (III)—ThT Fibrillation Assays for the Assessment of Physical Stability of Protein Formulations Low physical stability of a polypeptide may lead to amyloid fibril formation, which is observed as well-ordered, thread-like macromolecular structures in the sample eventually resulting in gel formation. This has traditionally been measured by visual inspection of the sample. However, that kind of measurement is very subjective and depending on the observer. Therefore, the application of a small molecule indicator probe is much more advantageous. Thioflavin T (ThT) is such a probe and has a distinct fluorescence signature when binding to fibrils [Naiki et al. (1989) Anal. […] LeVine (1999) Methods. Enzymol. […], 274-284]. The time course for fibril formation can be described by a sigmoidal curve with the following expression [Nielsen et al. (2001) Biochemistry 40, 6036-6046]; […] Here, F is the ThT fluorescence at the time t. The constant t0 is the time needed to reach 50% of maximum fluorescence. […] Few of those intermediates nucleate to form a template onto which further intermediates may assembly and the fibrillation proceeds. The lag-time corresponds to the interval in which the critical mass of nucleus is built up and the apparent rate constant is the rate with which the fibril itself is formed. Sample Preparation Samples were prepared freshly before each assay. Each sample composition is described in each example. The pH of the sample was adjusted to the desired value using appropriate amounts of concentrated NaOH and HClO4 or HCl. Thioflavin T was added to the samples from a stock solution in H2O to a final concentration of 1 μM. Sample aliquots of 200 μl were placed in a 96 well microtiter plate (Packard OptiPlate™96, white polystyrene). Usually, four or eight replica of each sample (corresponding to one test condition) were placed in one column of wells. The plate was sealed with Scotch Pad (Qiagen). Incubation and Fluorescence Measurement Incubation at given temperature, shaking and measurement of the ThT fluorescence emission were done in a Fluoroskan Ascent FL fluorescence platereader or Varioskan platereader (Thermo Labsystems). The temperature was adjusted to 37° C. The orbital shaking was adjusted to 960 rpm with an amplitude of 1 mm in all the presented data. Fluorescence measurement was done using excitation through a 444 nm filter and measurement of emission through a 485 nm filter. Each run was initiated by incubating the plate at the assay temperature for 10 min. The plate was measured every 20 minutes for a desired period of time. Between each measurement, the plate was shaken and heated as described. Data Handling The measurement points were saved in Microsoft Excel format for further processing and curve drawing and fitting was performed using GraphPad Prism. The background emission from ThT in the absence of fibrils was negligible. The data points are typically a mean of four or eight samples and shown with standard deviation error bars. Only data obtained in the same experiment (i.e. samples on the same plate) are presented in the same graph ensuring a relative measure of fibrillation between experiments. The data set may be fitted to Eq. […] However, since full sigmodial curves in this case are not always achieved during the measurement time, the degree of fibrillation is expressed as ThT fluorescence tabulated as the mean of the samples and shown with the standard deviation at various time points. Measurement of Initial and Final Concentrations The polypeptide concentration in each of the tested formulations were measured both before application in the ThT fibrillation assay (“Initial”) and after completion of the ThT fibrillation (“After ThT assay”). Concentrations were determined by reverse HPLC methods using a pramlintide standard as a reference. Before measurement after completion 150 μl was collected from each of the replica and transferred to an Eppendorf tube. These were centrifuged at 30000 G for 40 mins. […]

Data set [3] is described as follows: ASSAY (IV) determination of solubility. Format: physicochemical. How it is done:
Assay (IV)—Determination of Solubility
The polypeptide was dissolved in water at −500 nmol/ml and mixed 1:1 with a series of buffers (100 mM glycylglycine pH 3.0, 100 mM glycylglycine pH 4.0, 100 mM glycylglycine pH 5.0, 100 mM bistrispropane pH 6.0, 100 mM bistrispropane pH 6.5, 100 mM bistrispropane pH 7.0, 100 mM bistrispropane pH 7.5, 100 mM bistrispropane pH 8.0). After 18 hours at room temperature the samples were centrifuged and the polypeptide concentration determined by UPLC.

In data set [4] the target is T2, human amylin receptor (membranes from Amylin 3(a)/CRE-luc cells) (Homo sapiens, UniProt O60896+P30988).
T2 construct: expressed in transfected cells
T2 sequence (P30988 25-474): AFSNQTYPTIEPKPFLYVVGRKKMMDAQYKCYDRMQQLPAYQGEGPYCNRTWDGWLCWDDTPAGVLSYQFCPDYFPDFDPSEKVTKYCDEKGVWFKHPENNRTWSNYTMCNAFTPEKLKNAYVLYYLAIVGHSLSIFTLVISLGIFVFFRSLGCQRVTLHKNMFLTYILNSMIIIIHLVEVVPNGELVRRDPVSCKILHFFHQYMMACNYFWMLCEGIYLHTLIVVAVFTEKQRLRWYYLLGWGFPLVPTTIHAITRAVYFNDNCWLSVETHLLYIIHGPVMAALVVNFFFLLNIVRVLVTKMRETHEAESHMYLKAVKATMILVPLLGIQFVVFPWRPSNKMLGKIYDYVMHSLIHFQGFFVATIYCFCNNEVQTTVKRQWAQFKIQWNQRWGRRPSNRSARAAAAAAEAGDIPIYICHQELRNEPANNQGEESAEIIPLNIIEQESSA
T2 sequence (O60896 24-148 partner): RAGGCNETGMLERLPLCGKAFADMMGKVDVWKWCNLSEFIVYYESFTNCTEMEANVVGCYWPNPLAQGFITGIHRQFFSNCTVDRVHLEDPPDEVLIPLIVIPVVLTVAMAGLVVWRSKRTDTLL
In words: ASSAY (V) binding to the human amylin receptor (SPA, 125I-rat amylin).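 Further: competition binding of cell membranes (35 ng/µL) mixed with SPA beads in 384-well plates at 40 µL total volume, read by scintillation counting.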

The mark [5] stands for this setting: hCTR funct. EC50 divided by hAmylin-R funct. EC50.
The mark [6] stands for this setting: hCTR funct. EC50 over hAmylin-R funct. EC50.
Setting [7] is: human functional selectivity: hCTR funct. EC50 / hAmylin-R funct. EC50.
Setting [8] is: bistrispropane buffer, pH 6.5, read-out: Solubility pH 6.5 Concentration.
Where [9] appears, read: bistrispropane buffer, pH 7.5, read-out: Solubility pH 7.5 Concentration.
[10] abbreviates: bistrispropane buffer, pH 6.0, read-out: Solubility pH 6.0 Concentration.
The mark [11] stands for this setting: bistrispropane buffer, pH 7.0, read-out: Solubility pH 7.0 Concentration.
Setting [12] is: bistrispropane buffer, pH 8.0, read-out: Solubility pH 8.0 Concentration.
[13] abbreviates: glycylglycine buffer, pH 3.0, read-out: Solubility pH 3.0 Concentration.
[14] abbreviates: glycylglycine buffer, pH 4.0, read-out: Solubility pH 4.0 Concentration.
[15] abbreviates: glycylglycine buffer, pH 5.0, read-out: Solubility pH 5.0 Concentration.
Where [16] appears, read: Table 5, selectivity, hCTR bind IC50 / hAmylin-R bind IC50.
The mark [17] stands for this setting: Table 7, human binding selectivity, included for comparison.

Molecules are shown by their SMILES. Like-named read-outs stand apart in the source and are kept apart here. Numbered stars: 1 amine (or outer) side, 2 acyl side, 3 side chain; on linkers, the order of the positions; unused ones are H or OH. Bridge positions count the residues as written; N and C are the ends. Peptide text beside a SMILES is read from it. * marks the point of attachment. C20 diacid = O=C(O)CCCCCCCCCCCCCCCCCCC(=O)*; γGlu = O=C(O)[C@H](CCC(=O)[*:2])N[*:1]

Consider `CC[C@H](C)[C@H](NC(=O)[C@H](C)NC(=O)CNC(=O)[C@H](Cc1ccccc1)NC(=O)[C@H](CC(N)=O)NC(=O)[C@@H]1CCCN1C(=O)[C@H](CO)NC(=O)[C@H](CO)NC(=O)[C@H](Cc1c[nH]cn1)NC(=O)[C@H](CCCNC(=N)N)NC(=O)[C@H](CC(C)C)NC(=O)[C@H](Cc1ccccc1)NC(=O)[C@H](CCC(=O)O)NC(=O)[C@H](C)NC(=O)[C@H](CC(C)C)NC(=O)[C@H](CCCNC(=N)N)NC(=O)[C@H](CCC(N)=O)NC(=O)[C@@H](NC(=O)[C@H](C)NC(=O)[C@@H]1CSSC[C@H](NC(=O)[C@H](CCCCN)NC(=O)CC[C@H](NC(=O)CCCCCCCCCCCCCCCCCCC(=O)O)C(=O)O)C(=O)N[C@@H](CC(N)=O)C(=O)N[C@@H]([C@@H](C)O)C(=O)N[C@@H](C)C(=O)N[C@@H]([C@@H](C)O)C(=O)N1)[C@@H](C)O)C(=O)N1CCC[C@H]1C(=O)N[C@@H](CO)C(=O)N[C@@H](CO)C(=O)N[C@H](C(=O)N[C@@H](CC(N)=O)C(=O)N[C@H](C(=O)NCC(=O)N[C@@H](CO)C(=O)N[C@@H](CC(N)=O)C(=O)N[C@H](C(=O)N[C@@H](Cc1ccc(O)cc1)C(N)=O)[C@@H](C)O)C(C)C)[C@@H](C)O` [Example 9], for which the “Ratio hCT/hAmylin funct.” value in data set [1] (setting [5]), in data set [1] (setting [6]) and in data set [1] (setting [7]) was 7.4 each time. Besides, the “ThT pH 4.0 lag time (h)” value in data set [2] came out at 19 h. Moreover, the solubility at 18 h in data set [3] (setting [8]), in data set [3] (setting [9]), in data set [3] (setting [10]), in data set [3] (setting [11]), in data set [3] (setting [12]) and in data set [3] (setting [13]) was no less than 200 µM in each case. Besides, the solubility at 18 h in data set [3] (setting [14]) and in data set [3] (setting [15]) was no less than 200 µM throughout. Besides, the “Ratio hCT/hAmylin binding” value in data set [4] (setting [16]) and in data set [4] (setting [17]) was 8.0 in each case.

Turning to `CC[C@H](C)[C@H](NC(=O)[C@H](C)NC(=O)CNC(=O)[C@H](Cc1ccccc1)NC(=O)[C@H](CC(N)=O)NC(=O)[C@@H]1CCCN1C(=O)[C@H](CO)NC(=O)[C@H](CO)NC(=O)[C@H](Cc1c[nH]cn1)NC(=O)[C@H](CCCNC(=N)N)NC(=O)[C@H](CC(C)C)NC(=O)[C@H](Cc1ccccc1)NC(=O)[C@H](CCC(=O)O)NC(=O)[C@H](C)NC(=O)[C@H](CC(C)C)NC(=O)[C@H](CCCNC(=N)N)NC(=O)[C@H](CCC(N)=O)NC(=O)[C@@H](NC(=O)[C@H](C)NC(=O)[C@@H]1CSSC[C@H](NC(=O)[C@H](CCCCN)NC(=O)CC[C@H](NC(=O)CC[C@H](NC(=O)CCCCCCCCCCCCCCCCCCC(=O)O)C(=O)O)C(=O)O)C(=O)N[C@@H](CC(N)=O)C(=O)N[C@@H]([C@@H](C)O)C(=O)N[C@@H](C)C(=O)N[C@@H]([C@@H](C)O)C(=O)N1)[C@@H](C)O)C(=O)N1CCC[C@H]1C(=O)N[C@@H](CO)C(=O)N[C@@H](CO)C(=O)N[C@H](C(=O)N[C@@H](CC(N)=O)C(=O)N[C@H](C(=O)NCC(=O)N[C@@H](CO)C(=O)N[C@@H](CC(N)=O)C(=O)N[C@H](C(=O)N1CCC[C@H]1C(N)=O)[C@@H](C)O)C(C)C)[C@@H](C)O` [Example 14] ({C20 diacid-γGlu-γGlu}-KCNTATCATQRLAEFLRHSSPNFGAIPSSTNVGSNTP-NH2; disulfide 2-7), the “Ratio hCT/hAmylin funct.” value in data set [1] (hCTR funct. EC50 / hAmylin-R funct. EC50), in data set [1] (setting [5]), in data set [1] (setting [6]) and in data set [1] (setting [7]) was 1.6 each time. For the same molecule, the “ThT pH 4.0 lag time (h)” value in data set [2] turned out to be 45 h. Also, the solubility at 18 h in data set [3] (setting [8]), in data set [3] (setting [9]), in data set [3] (setting [10]), in data set [3] (setting [11]), in data set [3] (setting [12]) and in data set [3] (setting [13]) was no less than 200 µM throughout. Besides, the solubility at 18 h in data set [3] (setting [14]) and in data set [3] (setting [15]) was no less than 200 µM each time. The “Ratio hCT/hAmylin binding” value in data set [4] (setting [16]) and in data set [4] (setting [17]) was 2.2 throughout.

The values above are taken from patent US9023789B2, “Amylin analogs and pharmaceutical compositions thereof” (Novo Nordisk A/S, priority 2012, dated 2015).
